Tested on: 282377-053-R-J1-PDC complex spheroid viability
Assay: Anticancer human tumor 282377-053-R-J1-PDC patient-derived colon adenocarcinoma cell line growth inhibition [POLQ]
Conditions: for IC50: curve of first compound; for viability, T/C: stronger effect = lower value
Method: Multicellular complex tumor spheroid response to Polymerase (POL) inhibitors (novobiocin, ART-558, RP6685) in combination with a variety of drugs and investigational agents in selected tumor cell lines
The POL inhibitors (novobiocin, ART-558, and RP6685) were evaluated both individually and in combination with standard of care and investigational anticancer small molecules within a complex spheroid model of solid tumors. . Complex spheroids include a stromal component modeled by human endothelial cells (HUVEC) and fibroblasts modeled by human mesenchymal stem cells (MSCs). The concentration ranges selected for each drug and investigational agent were based upon clinically achievable concentrations if the clinical Cmax of the agent was known.
Compounds. The drugs and investigational agents: novobiocin (NSC847541), ART-558 (NSC835418), RP-6685 (NSC848927), peposertib (NSC802822), ceralasertib (NSC780249), elimusertib (NSC800525), camonsertib (NSC841442), AZD-1390 (NSC803789), olaparib (NSC753686), talazoparib (NSC767125), rucaparib (NSC756644), sotorasib (NSC818433), MRTX-1133 (NSC836407), SN-38 (NSC673596), topotecan (NSC609699), epotoside (NSC141540), doxorubicin (NSC123127), gemcitabine (NSC613327), 5-fluorouracil (NSC19893), paclitaxel (NSC125973), vemurafenib (NSC761431), MSA-2 (NSC828583), SN-011 (NSC837082), adavosertib (NSC754352), prexasertib (NSC758257), carboplatin (NSC241240) and oxaliplatin (NSC266046), were obtained from the National Cancer Institute (NCI) Developmental Therapeutics Program Chemical Repository (21). The FDA-approved anticancer drug set is available from the Developmental Therapeutics Program at https://dtp.cancer.gov/organization/dscb/obtaining/. […] The stock solutions were prepared in dimethyl sulfoxide (DMSO, Sigma-Aldrich, St. Louis, MO, cat. D2650), except for the platinum compounds which were prepared in saline (Quality Biological, Gaithersburg, MD, cat. 114-055-101), at 800-fold the tested concentration and stored at -70 degrees C prior to their use. All drugs and investigational agents were tested over a range starting from a high concentration at or near the clinical Cmax and decreasing in half-log increments. If the clinical Cmax for an agent had not been determined, the highest concentration tested was 10 microM, except for SN-38, which was tested at a high concentration of 1 microM.
Cell Culture. All cells were maintained in an incubator at 37 degrees C and 5% CO2 with 95% humidity. The PDC lines were cultured according to standard operating procedures established by the NCI PDMR (https://pdmr.cancer.gov). Table 3 of the manuscript, lists the cell lines along with the number of the three cell types plated to form the mct-spheroids and media for tumor cell growth. After thawing, all PDC lines, except 997537-175-T-J1-PDC and 415267-285-R-J2-PDC, were cultured in Matrigel-coated flasks prepared with a working solution of 1X Ham's F-12 nutrient mix, without supplementation (Thermo Fisher Scientific, cat. 11765054), 100 U/mL penicillin-streptomycin (Thermo Fisher Scientific, cat. 15140122), and 2.5% Matrigel (Corning Inc., Corning, NY, cat. 354248) for the first three passages. The two PDC lines 997537-175-T-J1-PDC and 415267-285-R-J2-PDC were cultured on uncoated flasks. The 857933-349-R-J2-PDC line was cultured in 6C/Colon 1B media containing advanced DMEM/F-12 (Thermo Fisher Scientific, cat. 12634028), 10 mM HEPES (Thermo Fisher Scientific, cat. 15630080), 1X GlutaMAX supplement (Thermo Fisher Scientific, cat. 35050061), 0.1 mg/mL primocin (InvivoGen, San Diego, CA, cat. ant-pm-2), 10% defined fetal bovine serum, heat inactivated (HyClone Laboratories Inc., Logan, UT, cat. SH30070.03HI), 50% L-WRN conditioned media (ATCC, cat. CRL-3276), 1.25 mM N-Acetyl-L-cysteine (Sigma-Aldrich, cat. A9165), 10 mM nicotinamide (Sigma-Aldrich, cat. N0636), 1X B-27 supplement (Thermo Fisher Scientific, cat. 17504044), 1X N-2 supplement (Thermo Fisher Scientific, cat. […]
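Further: spheroids exposed to compounds for seven days.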
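Wherever viability, T/C is given: 100% = DMSO vehicle control viability.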

## C=CC(=O)N1CCN(c2nc(=O)n(-c3c(C)ccnc3C(C)C)c3nc(-c4c(O)cccc4F)c(F)cc23)C(C)C1 (centres undefined) + COC1C(OC(N)=O)C(O)C(Oc2ccc3c(O)c(NC(=O)c4ccc(O)c(CC=C(C)C)c4)c(=O)oc3c2C)OC1(C)C
Second compound 0.0316 µM
  IC50: > 10000 nM
Second compound 0.1 µM
  IC50: > 10000 nM
Second compound 0.316 µM
  IC50: > 10000 nM
Second compound 1 µM
  IC50: > 10000 nM
Second compound 3.16 µM
  IC50: > 10000 nM
Second compound 10 µM
  IC50: > 10000 nM
Second compound 0.0316 µM, first compound 0.0316 µM
  viability, T/C: 114%
Second compound 0.0316 µM, first compound 0.1 µM
  viability, T/C: 103%
Second compound 0.0316 µM, first compound 0.316 µM
  viability, T/C: 102%
Second compound 0.0316 µM, first compound 1 µM
  viability, T/C: 94.9%
Second compound 0.0316 µM, first compound 3.16 µM
  viability, T/C: 111%
Second compound 0.0316 µM, first compound 10 µM
  viability, T/C: 94.4%
Second compound 0.1 µM, first compound 0.0316 µM
  viability, T/C: 107%
Second compound 0.1 µM, first compound 0.1 µM
  viability, T/C: 116%
Second compound 0.1 µM, first compound 0.316 µM
  viability, T/C: 96.5%
Second compound 0.1 µM, first compound 1 µM
  viability, T/C: 115%
Second compound 0.1 µM, first compound 3.16 µM
  viability, T/C: 108%
Second compound 0.1 µM, first compound 10 µM
  viability, T/C: 102%
Second compound 0.316 µM, first compound 0.0316 µM
  viability, T/C: 105%
Second compound 0.316 µM, first compound 0.1 µM
  viability, T/C: 124%
Second compound 0.316 µM, first compound 0.316 µM
  viability, T/C: 113%
Second compound 0.316 µM, first compound 1 µM
  viability, T/C: 100%
Second compound 0.316 µM, first compound 3.16 µM
  viability, T/C: 113%
Second compound 0.316 µM, first compound 10 µM
  viability, T/C: 77%
Second compound 1 µM, first compound 0.0316 µM
  viability, T/C: 94.9%
Second compound 1 µM, first compound 0.1 µM
  viability, T/C: 114%
Second compound 1 µM, first compound 0.316 µM
  viability, T/C: 114%
Second compound 1 µM, first compound 1 µM
  viability, T/C: 98.1%
Second compound 1 µM, first compound 3.16 µM
  viability, T/C: 89.6%
Second compound 1 µM, first compound 10 µM
  viability, T/C: 85.4%
Second compound 3.16 µM, first compound 0.0316 µM
  viability, T/C: 115%
Second compound 3.16 µM, first compound 0.1 µM
  viability, T/C: 113%
Second compound 3.16 µM, first compound 0.316 µM
  viability, T/C: 102%
Second compound 3.16 µM, first compound 1 µM
  viability, T/C: 90.1%
Second compound 3.16 µM, first compound 3.16 µM
  viability, T/C: 95.2%
Second compound 3.16 µM, first compound 10 µM
  viability, T/C: 90.5%
Second compound 10 µM, first compound 0.0316 µM
  viability, T/C: 106%
Second compound 10 µM, first compound 0.1 µM
  viability, T/C: 109%
Second compound 10 µM, first compound 0.316 µM
  viability, T/C: 105%
Second compound 10 µM, first compound 1 µM
  viability, T/C: 114%
Second compound 10 µM, first compound 3.16 µM
  viability, T/C: 112%
Second compound 10 µM, first compound 10 µM
  viability, T/C: 111%

## CC(=O)O[C@H]1C(=O)[C@@]2(C)[C@H]([C@H](OC(=O)c3ccccc3)[C@]3(O)C[C@H](OC(=O)[C@H](O)[C@@H](NC(=O)c4ccccc4)c4ccccc4)C(C)=C1C3(C)C)[C@]1(OC(C)=O)CO[C@@H]1C[C@@H]2O + Cc1cccc(N(C)C(=O)C2C(O)CCN2c2nc(C)cc(C(F)(F)F)c2C#N)c1
Second compound 0.0316 µM
  IC50: 27.8 nM
Second compound 0.1 µM
  IC50: 28 nM
Second compound 0.316 µM
  IC50: 26 nM
Second compound 1 µM
  IC50: 27.6 nM
Second compound 3.16 µM
  IC50: 28.1 nM
Second compound 10 µM
  IC50: 26.9 nM
Second compound 0.0316 µM, first compound 0.00949 µM
  viability, T/C: 103%
Second compound 0.0316 µM, first compound 0.03 µM
  viability, T/C: 44.3%
Second compound 0.0316 µM, first compound 0.0949 µM
  viability, T/C: 40.6%
Second compound 0.0316 µM, first compound 0.3 µM
  viability, T/C: 43%
Second compound 0.0316 µM, first compound 0.949 µM
  viability, T/C: 45.6%
Second compound 0.0316 µM, first compound 3 µM
  viability, T/C: 57.6%
Second compound 0.1 µM, first compound 0.00949 µM
  viability, T/C: 90.3%
Second compound 0.1 µM, first compound 0.03 µM
  viability, T/C: 47.5%
Second compound 0.1 µM, first compound 0.0949 µM
  viability, T/C: 43.4%
Second compound 0.1 µM, first compound 0.3 µM
  viability, T/C: 40.9%
Second compound 0.1 µM, first compound 0.949 µM
  viability, T/C: 44.8%
Second compound 0.1 µM, first compound 3 µM
  viability, T/C: 53%
Second compound 0.316 µM, first compound 0.00949 µM
  viability, T/C: 98.8%
Second compound 0.316 µM, first compound 0.03 µM
  viability, T/C: 42.5%
Second compound 0.316 µM, first compound 0.0949 µM
  viability, T/C: 38.5%
Second compound 0.316 µM, first compound 0.3 µM
  viability, T/C: 37.5%
Second compound 0.316 µM, first compound 0.949 µM
  viability, T/C: 45.4%
Second compound 0.316 µM, first compound 3 µM
  viability, T/C: 51.4%
Second compound 1 µM, first compound 0.00949 µM
  viability, T/C: 92.3%
Second compound 1 µM, first compound 0.03 µM
  viability, T/C: 44.9%
Second compound 1 µM, first compound 0.0949 µM
  viability, T/C: 37.2%
Second compound 1 µM, first compound 0.3 µM
  viability, T/C: 45.6%
Second compound 1 µM, first compound 0.949 µM
  viability, T/C: 48.8%
Second compound 1 µM, first compound 3 µM
  viability, T/C: 56.7%
Second compound 3.16 µM, first compound 0.00949 µM
  viability, T/C: 99.5%
Second compound 3.16 µM, first compound 0.03 µM
  viability, T/C: 47.2%
Second compound 3.16 µM, first compound 0.0949 µM
  viability, T/C: 39.5%
Second compound 3.16 µM, first compound 0.3 µM
  viability, T/C: 44.5%
Second compound 3.16 µM, first compound 0.949 µM
  viability, T/C: 45.2%
Second compound 3.16 µM, first compound 3 µM
  viability, T/C: 54.2%
Second compound 10 µM, first compound 0.00949 µM
  viability, T/C: 95%
Second compound 10 µM, first compound 0.03 µM
  viability, T/C: 43.1%
Second compound 10 µM, first compound 0.0949 µM
  viability, T/C: 37.8%
Second compound 10 µM, first compound 0.3 µM
  viability, T/C: 40.7%
Second compound 10 µM, first compound 0.949 µM
  viability, T/C: 46.4%
Second compound 10 µM, first compound 3 µM
  viability, T/C: 58.1%
